From ChEMBL document CHEMBL5705896 (ACS Chem Biol, 2013)
The source made the active and inactive calls. No cut-off for these calls is given here.

Experiments:
[1] = target: Histone-lysine N-methyltransferase EZH2 (Homo sapiens, UniProt Q15910, Y641F); experiment: Inhibition of EZH2 Y641F mutant (unknown origin) using HMT as substrate incubated for 60 mins by luminescence based analysis
[2] = target: Hepatocyte growth factor receptor (Homo sapiens) (UniProt P08581); experiment: Inhibition of human cytoplasmic domain N-terminal GST tagged MET (956 to 1390 end residues) expressed in baculovirus expression system using Srctide as substrate at 10 uM by mobility shift assay relative to control
[3] = target: Serine/threonine-protein kinase Chk1 (Homo sapiens) (UniProt O14757); experiment: Inhibition of full length human N-terminal GST tagged CHK1 (1 to 476 end residues) expressed in baculovirus expression system using chk-tide as substrate at 10 uM by mobility shift assay relative to control
[4] = target: Receptor-type tyrosine-protein kinase FLT3 (Homo sapiens) (UniProt P36888); experiment: Inhibition of human cytoplasmic domain N-terminal GST tagged FLT3 (564 to 993 end residues) expressed in baculovirus expression system using Srctide as substrate at 10 uM by mobility shift assay relative to control
[5] = target: D(1A) dopamine receptor (Homo sapiens) (UniProt P21728); experiment: Inhibition of dopamine D1 receptor (unknown origin) at 10 uM by radioligand binding assay relative to control
[6] = target: Tyrosine-protein kinase SYK (Homo sapiens) (UniProt P43405); experiment: Inhibition of full length human N-terminal GST tagged SYK (1 to […] end residues) expressed in baculovirus expression system using Blk/lyntide as substrate at 10 uM by mobility shift assay relative to control
[7] = target: Insulin-like growth factor 1 receptor (Homo sapiens) (UniProt P08069); experiment: Inhibition of human cytoplasmic domain N-terminal GST tagged IGF1R (959 to 1367 end residues) expressed in baculovirus expression system using IRS1 as substrate at 10 uM by mobility shift assay relative to control
[8] = target: Alpha-1D adrenergic receptor (Homo sapiens) (UniProt P25100); experiment: Inhibition of Alpha1D receptor (unknown origin) at 10 uM by radioligand binding assay relative to control
[9] = target: T1, Histone-lysine N-methyltransferase EZH2 (Homo sapiens, UniProt Q15910); experiment: Inhibition of EZH2 methyltransferase activity (unknown origin) in PRC2 complex using 3H-SAM as substrate by Scintillation proximity assay
[10] = target: T1, Histone-lysine N-methyltransferase EZH2
Description: Competitive inhibition of EZH2 methyltransferase activity (unknown origin) in PRC2 complex assessed as inhibition constant in presence of cofactor SAM by Lineweaver-Burk plot analysis

[11] = target: Aurora kinase A (Homo sapiens) (UniProt O14965); experiment: Inhibition of full length human N-terminal GST tagged AurA (1 to 403 end residues) expressed in baculovirus expression system using kemptide as substrate at 10 uM by mobility shift assay relative to control
[12] = target: 5-hydroxytryptamine receptor 5A (Homo sapiens) (UniProt P47898); experiment: Inhibition of 5-HT5A receptor (unknown origin) at 10 uM by radioligand binding assay relative to control
[13] = target: Translocator protein (Homo sapiens) (UniProt P30536); experiment: Inhibition of PBR (unknown origin) at 10 uM by radioligand binding assay relative to control
[14] = target: T1, Histone-lysine N-methyltransferase EZH2; remark: listed apart in the source
Description: Inhibition of human EZH2 in human MCF-10A cells assessed as reduction in H3K27me3 levels incubated for 72 hrs by In-cell western assay

[15] = target: Alpha-2C adrenergic receptor (Homo sapiens) (UniProt P18825); experiment: Inhibition of Alpha2C receptor (unknown origin) at 10 uM by radioligand binding assay relative to control
[16] = target: Serine/threonine-protein kinase D2 (Homo sapiens) (UniProt Q9BZL6); experiment: Inhibition of full length human N-terminal GST tagged PKD2 (1 to 878 end residues) expressed in baculovirus expression system using GS as peptide at 10 uM by mobility shift assay relative to control
[17] = target: Alpha-1A adrenergic receptor (Homo sapiens) (UniProt P35348); experiment: Inhibition of Alpha1A receptor (unknown origin) at 10 uM by radioligand binding assay relative to control
[18] = tested on: MCF7; experiment: Effect on EZH2 level in human MCF7 cells at 5 uM incubated for 3 days by immunofluorescence staining based analysis; type: functional, cell-based; settings: time 3.0 day
[19] = target: High affinity nerve growth factor receptor (Homo sapiens) (UniProt P04629); experiment: Inhibition of human cytoplasmic domain N-terminal GST tagged TRKA (436 to 790 end residues) expressed in baculovirus expression system using CSKtide as substrate at 10 uM by mobility shift assay relative to control
[20] = target: Dual specificity tyrosine-phosphorylation-regulated kinase 1B (Homo sapiens) (UniProt Q9Y463); experiment: Inhibition of full length human N-terminal GST tagged DYRK1B (1 to 629 end residues) expressed in baculovirus expression system using DYRKtide-F as substrate at 10 uM by mobility shift assay relative to control
[21] = target: Rho-associated protein kinase 1 (Homo sapiens) (UniProt Q13464); experiment: Inhibition of human catalytic domain N-terminal GST tagged ROCK1 (1 to 477 residues) expressed in baculovirus expression system using LIMKtide as substrate at 10 uM by mobility shift assay relative to control
[22] = target: Histone-lysine N-methyltransferase SETD7 (Homo sapiens, UniProt Q8WTS6); experiment: Inhibition of SETD7 (unknown origin) using [3H-SAM] as substrate incubated for 1 hr by scintillation proximity assay
[23] = target: Tyrosine-protein kinase Lck (Homo sapiens) (UniProt P06239); experiment: Inhibition of full length human N-terminal GST tagged LCK (1 to 509 end residues) expressed in baculovirus expression system using Srctide as substrate at 10 uM by mobility shift assay relative to control
[24] = target: 5-hydroxytryptamine receptor 6 (Homo sapiens) (UniProt P50406); experiment: Inhibition of 5-HT6 receptor (unknown origin) at 10 uM by radioligand binding assay relative to control
[25] = target: Histone-lysine N-methyltransferase EHMT1 (Homo sapiens, UniProt Q9H9B1); experiment: Inhibition of EHMT1 (unknown origin) using [3H-SAM] as substrate incubated for 1 hr by scintillation proximity assay
[26] = target: Histamine H1 receptor (Homo sapiens) (UniProt P35367); experiment: Inhibition of H1 receptor (unknown origin) at 10 uM by radioligand binding assay relative to control
[27] = target: Alpha-1B adrenergic receptor (Homo sapiens) (UniProt P35368); experiment: Inhibition of Alpha1B receptor (unknown origin) at 10 uM by radioligand binding assay relative to control
[28] = target: Muscarinic acetylcholine receptor M3 (Homo sapiens) (UniProt P20309); experiment: Inhibition of M3 receptor (unknown origin) at 10 uM by radioligand binding assay relative to control
[29] = target: Lymphokine-activated killer T-cell-originated protein kinase (Homo sapiens) (UniProt Q96KB5); experiment: Inhibition of full length human N-terminal GST tagged PBK (1 to 322 end residues) expressed in baculovirus expression system using histone H3 as substrate at 10 uM by mobility shift assay relative to control

T1 sequence (Q15910 whole entry): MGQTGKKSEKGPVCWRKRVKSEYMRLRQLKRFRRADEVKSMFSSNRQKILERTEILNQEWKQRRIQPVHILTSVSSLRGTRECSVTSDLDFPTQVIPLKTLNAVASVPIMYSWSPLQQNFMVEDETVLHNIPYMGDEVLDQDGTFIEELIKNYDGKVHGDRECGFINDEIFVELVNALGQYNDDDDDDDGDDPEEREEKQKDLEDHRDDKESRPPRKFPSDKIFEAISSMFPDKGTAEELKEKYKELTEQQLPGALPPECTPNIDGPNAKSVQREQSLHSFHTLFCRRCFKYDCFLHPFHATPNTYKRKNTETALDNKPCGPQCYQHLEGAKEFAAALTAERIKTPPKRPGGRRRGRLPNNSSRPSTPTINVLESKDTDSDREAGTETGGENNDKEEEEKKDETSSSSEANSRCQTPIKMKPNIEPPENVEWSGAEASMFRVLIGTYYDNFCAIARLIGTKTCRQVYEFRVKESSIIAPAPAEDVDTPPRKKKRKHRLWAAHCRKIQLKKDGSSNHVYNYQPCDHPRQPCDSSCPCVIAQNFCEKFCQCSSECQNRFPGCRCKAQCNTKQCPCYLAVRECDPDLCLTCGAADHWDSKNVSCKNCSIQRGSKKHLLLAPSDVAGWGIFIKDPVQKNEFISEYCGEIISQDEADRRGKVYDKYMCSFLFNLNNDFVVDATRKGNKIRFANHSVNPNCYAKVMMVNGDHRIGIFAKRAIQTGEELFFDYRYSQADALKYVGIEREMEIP
Sequence of Tyrosine-protein kinase Lck (Homo sapiens) (P06239 2-509 limits assumed): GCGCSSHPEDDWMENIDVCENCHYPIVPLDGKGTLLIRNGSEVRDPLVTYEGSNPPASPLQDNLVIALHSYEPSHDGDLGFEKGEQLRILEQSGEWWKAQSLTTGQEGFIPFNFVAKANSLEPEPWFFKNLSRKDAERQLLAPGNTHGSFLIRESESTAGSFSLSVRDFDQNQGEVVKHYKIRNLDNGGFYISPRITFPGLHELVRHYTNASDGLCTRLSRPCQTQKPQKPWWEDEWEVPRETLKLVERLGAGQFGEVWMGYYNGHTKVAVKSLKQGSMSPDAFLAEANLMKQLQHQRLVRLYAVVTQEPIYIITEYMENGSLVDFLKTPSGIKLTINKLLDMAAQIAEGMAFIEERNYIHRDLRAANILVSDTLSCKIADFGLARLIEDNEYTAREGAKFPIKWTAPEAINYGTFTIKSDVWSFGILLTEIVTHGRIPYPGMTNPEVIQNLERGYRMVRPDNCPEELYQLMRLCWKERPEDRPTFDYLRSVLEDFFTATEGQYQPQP
Sequence of 5-hydroxytryptamine receptor 5A (Homo sapiens) (P47898 whole entry): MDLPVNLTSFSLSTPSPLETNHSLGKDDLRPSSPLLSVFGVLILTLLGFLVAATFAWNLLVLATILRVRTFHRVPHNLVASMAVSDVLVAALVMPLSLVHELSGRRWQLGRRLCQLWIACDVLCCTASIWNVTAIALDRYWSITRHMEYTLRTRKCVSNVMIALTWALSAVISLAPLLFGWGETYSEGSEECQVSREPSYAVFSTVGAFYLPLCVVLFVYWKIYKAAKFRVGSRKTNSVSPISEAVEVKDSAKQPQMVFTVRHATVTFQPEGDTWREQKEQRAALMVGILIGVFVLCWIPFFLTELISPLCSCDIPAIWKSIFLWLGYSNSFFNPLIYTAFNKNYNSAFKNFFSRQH
Sequence of Alpha-1B adrenergic receptor (Homo sapiens) (P35368 whole entry): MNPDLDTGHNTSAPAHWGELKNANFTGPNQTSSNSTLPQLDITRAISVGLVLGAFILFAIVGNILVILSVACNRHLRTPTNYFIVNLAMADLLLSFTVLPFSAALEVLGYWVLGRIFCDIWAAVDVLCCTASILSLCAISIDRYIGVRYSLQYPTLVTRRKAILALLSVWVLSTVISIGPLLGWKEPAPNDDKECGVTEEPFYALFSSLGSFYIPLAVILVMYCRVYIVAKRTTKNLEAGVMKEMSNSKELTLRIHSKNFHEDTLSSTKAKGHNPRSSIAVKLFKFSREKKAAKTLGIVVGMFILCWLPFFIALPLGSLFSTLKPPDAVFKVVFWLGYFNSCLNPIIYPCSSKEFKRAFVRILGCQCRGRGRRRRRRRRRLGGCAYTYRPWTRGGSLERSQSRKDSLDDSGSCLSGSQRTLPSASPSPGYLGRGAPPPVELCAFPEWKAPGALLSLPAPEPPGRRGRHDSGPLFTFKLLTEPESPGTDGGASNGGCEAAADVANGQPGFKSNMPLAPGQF
Sequence of High affinity nerve growth factor receptor (Homo sapiens) (P04629 33-796 limits assumed): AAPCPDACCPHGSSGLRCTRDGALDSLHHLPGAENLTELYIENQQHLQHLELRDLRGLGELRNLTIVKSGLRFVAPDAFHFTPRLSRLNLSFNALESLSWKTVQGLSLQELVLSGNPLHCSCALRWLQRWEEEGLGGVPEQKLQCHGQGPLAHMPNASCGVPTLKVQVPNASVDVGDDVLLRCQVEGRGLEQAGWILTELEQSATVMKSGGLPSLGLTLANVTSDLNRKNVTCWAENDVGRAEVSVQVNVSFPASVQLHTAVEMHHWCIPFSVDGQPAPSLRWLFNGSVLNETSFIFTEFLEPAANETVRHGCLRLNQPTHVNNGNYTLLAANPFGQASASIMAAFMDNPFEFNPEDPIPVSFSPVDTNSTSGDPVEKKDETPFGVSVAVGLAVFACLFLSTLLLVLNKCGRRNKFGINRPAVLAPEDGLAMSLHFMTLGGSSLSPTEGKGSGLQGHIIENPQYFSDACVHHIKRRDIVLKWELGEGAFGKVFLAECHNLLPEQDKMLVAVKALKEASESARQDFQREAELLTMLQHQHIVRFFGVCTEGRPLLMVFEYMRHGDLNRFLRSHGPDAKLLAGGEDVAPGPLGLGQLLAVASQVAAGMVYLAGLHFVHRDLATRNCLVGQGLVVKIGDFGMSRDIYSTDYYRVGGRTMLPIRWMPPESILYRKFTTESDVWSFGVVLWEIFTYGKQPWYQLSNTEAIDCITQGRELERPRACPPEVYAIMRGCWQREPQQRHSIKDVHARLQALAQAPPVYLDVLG
Sequence of Serine/threonine-protein kinase Chk1 (Homo sapiens) (O14757 whole entry, the tested form may be a part): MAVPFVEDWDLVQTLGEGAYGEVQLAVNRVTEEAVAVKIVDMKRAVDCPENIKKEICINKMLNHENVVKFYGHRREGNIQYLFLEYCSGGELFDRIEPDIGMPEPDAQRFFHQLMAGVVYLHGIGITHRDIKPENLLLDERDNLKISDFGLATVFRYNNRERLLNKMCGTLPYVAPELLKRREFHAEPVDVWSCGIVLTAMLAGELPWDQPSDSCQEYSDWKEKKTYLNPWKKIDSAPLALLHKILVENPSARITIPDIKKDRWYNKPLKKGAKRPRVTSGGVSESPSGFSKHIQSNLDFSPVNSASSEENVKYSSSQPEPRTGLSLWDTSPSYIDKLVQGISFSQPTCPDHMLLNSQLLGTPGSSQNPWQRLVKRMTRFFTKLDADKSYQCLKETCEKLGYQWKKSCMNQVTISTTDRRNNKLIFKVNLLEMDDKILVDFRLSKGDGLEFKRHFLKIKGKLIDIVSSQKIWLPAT
Sequence of Rho-associated protein kinase 1 (Homo sapiens) (Q13464 2-1354 limits assumed): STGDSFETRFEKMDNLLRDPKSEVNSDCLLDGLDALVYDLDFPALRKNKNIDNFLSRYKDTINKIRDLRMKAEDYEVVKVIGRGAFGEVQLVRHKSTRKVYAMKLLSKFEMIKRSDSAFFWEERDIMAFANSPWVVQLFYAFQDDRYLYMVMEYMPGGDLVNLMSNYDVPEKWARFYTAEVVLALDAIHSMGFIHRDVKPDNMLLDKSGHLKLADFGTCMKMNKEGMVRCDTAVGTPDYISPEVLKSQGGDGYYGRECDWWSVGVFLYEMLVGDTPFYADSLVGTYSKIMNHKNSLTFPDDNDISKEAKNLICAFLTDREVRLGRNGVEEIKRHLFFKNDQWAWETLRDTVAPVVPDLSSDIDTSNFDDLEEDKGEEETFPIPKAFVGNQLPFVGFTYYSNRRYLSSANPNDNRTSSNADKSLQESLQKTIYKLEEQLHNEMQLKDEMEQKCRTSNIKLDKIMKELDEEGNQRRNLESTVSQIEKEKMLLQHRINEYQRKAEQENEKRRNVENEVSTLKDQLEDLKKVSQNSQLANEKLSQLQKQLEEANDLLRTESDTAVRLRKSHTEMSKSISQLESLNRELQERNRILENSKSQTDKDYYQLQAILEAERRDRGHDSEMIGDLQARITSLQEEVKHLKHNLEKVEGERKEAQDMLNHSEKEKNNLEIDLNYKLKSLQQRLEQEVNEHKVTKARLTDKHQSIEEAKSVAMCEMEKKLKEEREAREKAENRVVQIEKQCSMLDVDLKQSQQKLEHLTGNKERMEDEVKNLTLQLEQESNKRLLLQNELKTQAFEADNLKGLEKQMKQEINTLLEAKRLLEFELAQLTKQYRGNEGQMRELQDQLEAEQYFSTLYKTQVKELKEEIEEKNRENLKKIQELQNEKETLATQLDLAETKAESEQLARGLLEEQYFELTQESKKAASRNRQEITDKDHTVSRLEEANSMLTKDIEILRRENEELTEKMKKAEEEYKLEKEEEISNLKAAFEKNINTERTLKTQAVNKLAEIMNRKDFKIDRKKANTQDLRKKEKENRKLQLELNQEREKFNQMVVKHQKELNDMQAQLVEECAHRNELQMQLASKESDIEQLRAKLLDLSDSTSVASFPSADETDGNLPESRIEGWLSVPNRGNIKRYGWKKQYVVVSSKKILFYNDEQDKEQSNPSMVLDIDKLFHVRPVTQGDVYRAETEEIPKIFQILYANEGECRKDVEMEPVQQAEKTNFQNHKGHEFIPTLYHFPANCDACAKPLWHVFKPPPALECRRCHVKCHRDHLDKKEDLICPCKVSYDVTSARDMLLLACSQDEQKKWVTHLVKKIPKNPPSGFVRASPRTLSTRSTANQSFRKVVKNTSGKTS
Sequence of Translocator protein (Homo sapiens) (P30536 whole entry): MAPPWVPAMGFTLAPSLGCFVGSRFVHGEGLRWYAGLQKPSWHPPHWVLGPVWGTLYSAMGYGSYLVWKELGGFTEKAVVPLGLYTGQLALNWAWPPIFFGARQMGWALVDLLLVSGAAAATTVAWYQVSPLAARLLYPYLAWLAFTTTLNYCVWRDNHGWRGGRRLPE
Sequence of Histone-lysine N-methyltransferase EZH2 (Homo sapiens, UniProt Q15910, Y641F) (Q15910 whole entry Y641F, the tested form may be a part): as the sequence (Q15910 whole entry) above, with Y641F counted along it

## CCCc1cc(C)[nH]c(=O)c1CNC(=O)c1cc(-c2ccc(N3CCN(C(C)C)CC3)nc2)cc2c1cnn2C(C)C
[1]
  IC50: < 15 nM
[2]
  inhibition: -3%
[3]
  inhibition: -2%
[4]
  inhibition: 16%
[5]
  inhibition: 13%
[6]
  inhibition: -6%
[7]
  inhibition: -7%
[8]
  inhibition: 14%
[9]
  IC50: < 10 nM
[10]
  Ki: 4.6 nM
[11]
  inhibition: -4%
[12]
  inhibition: 10%
[13]
  inhibition: 31%
[14]
  IC50: 124 nM
[15]
  inhibition: 47%
[16]
  inhibition: 5%
[17]
  inhibition: 3%
[18]
  Activity: inactive
[19]
  inhibition: 7%
[20]
  inhibition: -4%
[21]
  inhibition: 5%
[22]
  IC50: > 100000 nM
[23]
  inhibition: 0%
[24]
  inhibition: 11%
[25]
  IC50: > 100000 nM
[26]
  inhibition: 16%
[27]
  inhibition: 6%
[28]
  inhibition: 10%
[29]
  inhibition: -10%
